# According to US20230312587A1, “PTERIDINONE COMPOUNDS AND USES THEREOF” (Vertex Pharmaceutical Incorporated, priority 2018, published 2023):
# Test system: β-catenin-TCF-mediated reporter transcription activity in Colo 205 cells
# Assay: Colo 205 reporter assay (TCF/LEF luciferase)
# Type: cell-based
# Details: Homo sapiens, COLO 205, 5 h, Colo 205 TCF/LEF luciferase reporter, five hours after addition of compound; read-out: TCF reporter Colo205 IC50
# Description: The compounds of the invention described herein were screened using the assay procedure for β-catenin-TCF-mediated reporter transcription activity described below.
# Reporter cell lines were generated by stably transfecting cells of cancer cell lines (e.g., colon cancer) with a plasmid reporter construct (From SABiosciences, a QIAGEN company) that includes TCF/LEF promoter driving expression of the firefly luciferase gene. TCF/LEF reporter constructs were made in which TCF/LEF promoter, a promoter with optimal number of TCF/LEF binding sites designed by SABiosceinces, was linked upstream of the firefly luciferase gene. This construct could also include a puromycin resistance gene as a selectable marker. This construct could also be used to stably transfect Colo 205 cells, a colon cancer cell line having a mutated APC gene that causes a constitutively active β-catenin. A control cell line was generated using another plasmid construct containing the luciferase gene under the control of a CMV basal promoter which is not activated by p-catenin.
# Colo 205 Cultured cells with a stably transfected reporter construct were plated at approximately 10,000 cells per well into 384 well multi-well plates for twenty four hours. The testing compounds were then added to the wells in 2-fold serial dilutions using a twenty micromolar top concentration. A series of control wells for each cell type received only compound solvent. Five hours after the addition of compound, reporter activity for luciferase was assayed, by addition of the SteadyGlo luminescence reagent (Promega). The reporter luminescence activity was measured using Pherastar plate reader (BMG Labtech). Readings were normalized to DMSO only treated cells, and normalized activities were then used in the IC50 calculations. The Colo 205 reporter assay data are summarized in Table 45: A<0.3 μM; 0.3 μM≤B<1.0 μM; 1.0 μM≤C<5.0 μM; D≥5.0 μM
# Colo 205 reporter assay data has also been obtained for certain R-isomers of Formula (I) wherein R^4 is —H or -D, and wherein the carbon to which R^3 and R^4 are attached (C2 carbon of Formula (X)) has R stereochemistry; such epimeric compounds are represented using the suffix “B” attached to the Compound described herein having the S stereochemistry at the carbon to which R^3 and R^4 are attached: […]
row,IC50 [nM],Structure (SMILES)
1,< 300,"Cc1nc(NCc2cnn(CC3CCC(F)(F)CC3)c2)nc2c1NC(=O)[C@H](C)N2C [Compound 58, (7S)-2-(((1-((4,4-difluorocyclohexyl)methyl)-1H-pyrazol-4-yl)methyl)amino)-4,7,8-trimethyl-7,8-dihydropteridin-6(5H)-one]"
2,≥ 5000,"Cc1nc(NCc2nc(-c3ccccc3)cs2)nc2c1NC(=O)[C@H](C)N2C [Compound 59, (7S)-4,7,8-trimethyl-2-(((4-phenylthiazol-2-yl)methyl)amino)-7,8-dihydropteridin-6(5H)-one]"
3,≥ 5000,"Cc1nc(NCc2ccnc(N3CCCCC3)c2)nc2c1NC(=O)[C@H](C)N2C [Compound 60, (S)-4,7,8-trimethyl-2-(((2-(piperidin-1-yl)pyridin-4-yl)methyl)amino)-7,8-dihydropteridin-6(5H)-one]"
4,< 300,"Cc1nc(NCc2cnn(CC3CC(F)(F)C3)c2)nc2c1NC(=O)[C@H](C)N2C [Compound 61, (7S)-2-(((1-((3,3-difluorocyclobutyl)methyl)-1H-pyrazol-4-yl)methyl)amino)-4,7,8-trimethyl-7,8-dihydropteridin-6(5H)-one]"
5,≥ 5000,"Cc1nc(NCc2ccnc(N3CCOCC3)c2)nc2c1NC(=O)[C@H](C)N2C [Compound 62, (S)-4,7,8-trimethyl-2-(((2-morpholinopyridin-4-yl)methyl)amino)-7,8-dihydropteridin-6(5H)-one]"
6,< 300,"Cc1nc(NCc2cnn(Cc3ccc(F)cc3C#N)c2)nc2c1NC(=O)[C@H](C)N2C [Compound 64, (7S)-5-fluoro-2-((4-(((4,7,8-trimethyl-6-oxo-5,6,7,8-tetrahydropteridin-2-yl)amino)methyl)-1H-pyrazol-1-yl)methyl)benzonitrile]"
7,< 300,"Cc1nc(NCc2cnn(Cc3ccc(F)cc3Cl)c2)nc2c1NC(=O)[C@H](C)N2C [Compound 65, (7S)-2-(((1-(2-chloro-4-fluorobenzyl)-1H-pyrazol-4-yl)methyl)amino)-4,7,8-trimethyl-7,8-dihydropteridin-6(5H)-one]"
8,< 300,"Cc1cc(F)ccc1Cn1cc(CNc2nc(C)c3c(n2)N(C)[C@@H](C)C(=O)N3)cn1 [Compound 66, (7S)-2-(((1-(4-fluoro-2-methylbenzyl)-1H-pyrazol-4-yl)methyl)amino)-4,7,8-trimethyl-7,8-dihydropteridin-6(5H)-one]"
9,< 300,"Cc1nc(NCc2cnn(Cc3ccc(F)cc3C(F)(F)F)c2)nc2c1NC(=O)[C@H](C)N2C [Compound 67, (7S)-2-(((1-(4-fluoro-2-(trifluoromethyl)benzyl)-1H-pyrazol-4-yl)methyl)amino)-4,7,8-trimethyl-7,8-dihydropteridin-6(5H)-one]"
10,< 300,"Cc1nc(NCc2cnn(Cc3ccccc3C(F)(F)F)c2)nc2c1NC(=O)[C@H](C)N2C [Compound 68, (7S)-4,7,8-trimethyl-2-(((1-(2-(trifluoromethyl)benzyl)-1H-pyrazol-4-yl)methyl)amino)-7,8-dihydropteridin-6(5H)-one]"
11,< 300,"Cc1nc(NCc2cnn(Cc3cccc(F)c3)c2)nc2c1NC(=O)[C@H](C)N2C [Compound 69, (7S)-2-(((1-(3-fluorobenzyl)-1H-pyrazol-4-yl)methyl)amino)-4,7,8-trimethyl-7,8-dihydropteridin-6(5H)-one]"
12,300 to 1000,"Cc1nc(NCc2ccc(OCc3ccc(F)cc3)cn2)nc2c1NC(=O)[C@H](C)N2C [Compound 70, (S)-2-(((5-((4-fluorobenzyl)oxy)pyridin-2-yl)methyl)amino)-4,7,8-trimethyl-7,8-dihydropteridin-6(5H)-one]"
13,300 to 1000,"Cc1nc(NCc2cnn([C@@H](C)c3ccc(F)cc3)c2)nc2c1NC(=O)[C@H](C)N2C [Compound 71, (7S)-2-(((1-((S)-1-(4-fluorophenyl)ethyl)-1H-pyrazol-4-yl)methyl)amino)-4,7,8-trimethyl-7,8-dihydropteridin-6(5H)-one]"
14,< 300,"Cc1nc(NCc2cnn([C@H](C)c3ccc(F)cc3)c2)nc2c1NC(=O)[C@H](C)N2C [Compound 72, (7S)-2-(((1-((R)-1-(4-fluorophenyl)ethyl)-1H-pyrazol-4-yl)methyl)amino)-4,7,8-trimethyl-7,8-dihydropteridin-6(5H)-one]"
15,< 300,"Cc1nn(Cc2ccc(F)cc2)cc1CNc1nc(C)c2c(n1)N(C)[C@@H](C)C(=O)N2 [Compound 73, (7S)-2-(((1-(4-fluorobenzyl)-3-methyl-1H-pyrazol-4-yl)methyl)amino)-4,7,8-trimethyl-7,8-dihydropteridin-6(5H)-one]"
16,300 to 1000,"Cc1nc(NCc2cnn(Cc3ccc(F)cc3)c2C)nc2c1NC(=O)[C@H](C)N2C [Compound 74, (7S)-2-(((1-(4-fluorobenzyl)-5-methyl-1H-pyrazol-4-yl)methyl)amino)-4,7,8-trimethyl-7,8-dihydropteridin-6(5H)-one]"
17,< 300,"COc1cc(Cn2cc(CNc3nc(C)c4c(n3)N(C)[C@@H](C)C(=O)N4)cn2)ccc1F [Compound 75, (7S)-2-(((1-(4-fluoro-3-methoxybenzyl)-1H-pyrazol-4-yl)methyl)amino)-4,7,8-trimethyl-7,8-dihydropteridin-6(5H)-one]"
18,≥ 5000,"COc1ccc(Cn2ccc(CNc3nc(C)c4c(n3)N(C)[C@@H](C)C(=O)N4)n2)cc1OC [Compound 76, (7S)-2-(((1-(3,4-dimethoxybenzyl)-1H-pyrazol-3-yl)methyl)amino)-4,7,8-trimethyl-7,8-dihydropteridin-6(5H)-one]"
19,< 300,"Cc1nc(NCc2cnn(Cc3ccccc3C(C)C)c2)nc2c1NC(=O)[C@H](C)N2C [Compound 78, (7S)-2-(((1-(2-isopropylbenzyl)-1H-pyrazol-4-yl)methyl)amino)-4,7,8-trimethyl-7,8-dihydropteridin-6(5H)-one]"
20,< 300,"CC(C)c1ccccc1Cn1cc(CNc2ncc3c(n2)N(C)[C@@H](C)C(=O)N3)cn1 [Compound 79, (7S)-2-(((1-(2-isopropylbenzyl)-1H-pyrazol-4-yl)methyl)amino)-7,8-dimethyl-7,8-dihydropteridin-6(5H)-one]"
21,< 300,"CC(C)c1cccc(Cn2cc(CNc3ncc4c(n3)N(C)[C@@H](C)C(=O)N4)cn2)c1 [Compound 81, (7S)-2-(((1-(3-isopropylbenzyl)-1H-pyrazol-4-yl)methyl)amino)-7,8-dimethyl-7,8-dihydropteridin-6(5H)-one]"
22,300 to 1000,"Cc1nc(NCc2cnn(Cc3ccc(F)nc3)c2)nc2c1N(C)C(=O)[C@H](C)N2C [Compound 82, (7S)-2-(((1-((6-fluoropyridin-3-yl)methyl)-1H-pyrazol-4-yl)methyl)amino)-4,5,7,8-tetramethyl-7,8-dihydropteridin-6(5H)-one]"
23,< 300,"COc1cc(F)ccc1Cn1cc(CNc2nc(C)c3c(n2)N(C)[C@@H](C)C(=O)N3C)cn1 [Compound 84, (7S)-2-(((1-(4-fluoro-2-methoxybenzyl)-1H-pyrazol-4-yl)methyl)amino)-4,5,7,8-tetramethyl-7,8-dihydropteridin-6(5H)-one]"
24,< 300,"Cc1nc(NCc2cnn(Cc3ccc(F)cc3O)c2)nc2c1NC(=O)[C@H](C)N2C [Compound 87, (7S)-2-(((1-(4-fluoro-2-hydroxybenzyl)-1H-pyrazol-4-yl)methyl)amino)-4,7,8-trimethyl-7,8-dihydropteridin-6(5H)-one]"
25,< 300,"COc1c(F)ccc(Cn2cc(CNc3nc(C)c4c(n3)N(C)[C@@H](C)C(=O)N4)cn2)c1F [Compound 88, (7S)-2-(((1-(2,4-difluoro-3-methoxybenzyl)-1H-pyrazol-4-yl)methyl)amino)-4,7,8-trimethyl-7,8-dihydropteridin-6(5H)-one]"
26,< 300,"Cc1nc(NCc2cnn(C[C@@H](C)c3ccccc3)c2)nc2c1NC(=O)[C@H](C)N2C [Compound 89, (7S)-4,7,8-trimethyl-2-(((1-((S)-2-phenylpropyl)-1H-pyrazol-4-yl)methyl)amino)-7,8-dihydropteridin-6(5H)-one]"
27,< 300,"Cc1nc(NCc2cnn(C[C@H](C)c3ccccc3)c2)nc2c1NC(=O)[C@H](C)N2C [Compound 90, (7S)-4,7,8-trimethyl-2-(((1-((R)-2-phenylpropyl)-1H-pyrazol-4-yl)methyl)amino)-7,8-dihydropteridin-6(5H)-one]"
28,< 300,"Cc1nc(NCc2cnn(CC(=O)c3ccc(F)cc3)c2)nc2c1NC(=O)[C@H](C)N2C [Compound 91, (7S)-2-(((1-(2-(4-fluorophenyl)-2-oxoethyl)-1H-pyrazol-4-yl)methyl)amino)-4,7,8-trimethyl-7,8-dihydropteridin-6(5H)-one]"
29,< 300,"Cc1nc(NCc2cnn(CC(C)(C)c3ccc(F)cc3)c2)nc2c1NC(=O)[C@H](C)N2C [Compound 92, (7S)-2-(((1-(2-(4-fluorophenyl)-2-methylpropyl)-1H-pyrazol-4-yl)methyl)amino)-4,7,8-trimethyl-7,8-dihydropteridin-6(5H)-one]"
